Reference: patent US9340532B2, “Methods and compositions for inhibiting CNKSR1” (PHUSIS THERAPEUTICS, INC., priority 2012, dated 2016)
Where “and” joins values, the source holds several entries; their conditions need not be identical. Equal values may be shown once. Entries after “also recorded” stand apart in the source; their conditions may differ. Read-outs that look alike come from different tables or passages of the source.

Key:
rHuman carboxyesterase 1 = molecular target: T1, rHuman carboxyesterase 1 (Homo sapiens, UniProt P23141); assay: Stability with carboxyesterase 1; assay type: in vitro ADME; conditions: rHuman carboxyesterase 1 24 U/ml, pH 7.4, 37° C.
T1 sequence (P23141 18-567): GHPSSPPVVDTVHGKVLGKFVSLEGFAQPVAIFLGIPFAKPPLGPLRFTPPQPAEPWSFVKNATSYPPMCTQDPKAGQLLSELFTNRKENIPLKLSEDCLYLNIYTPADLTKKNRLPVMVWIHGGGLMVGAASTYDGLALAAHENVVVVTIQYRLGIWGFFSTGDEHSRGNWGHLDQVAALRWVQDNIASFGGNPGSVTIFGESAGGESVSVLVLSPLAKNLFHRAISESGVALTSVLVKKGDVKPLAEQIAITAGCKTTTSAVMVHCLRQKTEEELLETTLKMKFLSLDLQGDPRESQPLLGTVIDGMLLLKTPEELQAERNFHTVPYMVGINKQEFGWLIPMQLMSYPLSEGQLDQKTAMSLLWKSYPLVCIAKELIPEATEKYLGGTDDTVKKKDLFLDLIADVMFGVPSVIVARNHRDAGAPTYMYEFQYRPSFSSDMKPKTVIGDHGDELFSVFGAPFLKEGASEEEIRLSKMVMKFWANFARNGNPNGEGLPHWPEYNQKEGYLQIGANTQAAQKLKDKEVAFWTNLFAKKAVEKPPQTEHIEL

PH-domain of AKT = molecular target: T2, PH-domain of AKT (Homo sapiens, UniProt P31749); assay: SPR binding to expressed PH-domain of AKT
T2 construct: made in house
T2 sequence (P31749 5-108 limits assumed): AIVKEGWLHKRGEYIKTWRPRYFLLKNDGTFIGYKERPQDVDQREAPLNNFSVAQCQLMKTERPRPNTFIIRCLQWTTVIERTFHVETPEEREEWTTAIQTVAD
Experimental: In embodiments, the binding of identified compounds to the crystal structures of other PH-domain signaling proteins, AKT, PDPK1, Btk, and Tiam1 can be predicted. In such embodiments, the Kds exceed about 100 μM. In other embodiments, SPR can measure the binding of identified compounds to the expressed PH-domains of AKT, PDPK1 and Tiam1. […] Thus, the identified compounds appear have, at least, about 50 to about 100 fold selectivity for CNKSR1 compared to the other PH-domains studied.
A commercially available docking package, GOLD (GOLD [3.2], CCDC: Cambridge, UK, 2007) was used to evaluate the docking of compounds 1-7 into the binding pocket, see e.g. Table 5. Other docking was performed using modeling algorithms with state-of-the-art commercial drug discovery software (Schrodinger suite). GLIDE was chosen as the docking algorithm used to select and optimize compounds, providing a GlideScore as a rough estimate of binding affinity that was used to rank and select the best compounds. Additionally, ligand-based approaches provided an alternative to structure based drug discovery. Ligand-based virtual screening methodologies can take into account shape and electrostatics (like ROCS) and the pharmacophoric features (acceptor, donor, hydrophobic, aromatic, etc.) of its functional groups. […]

[1] = Pharmacokinetics after oral administration; assay type: in vivo, mice; conditions: for elimination half life: oral, mice
Experimental: In order to understand better the reasons for the antitumor activity of compound #7 pharmacokinetic studies were conducted. […] Following oral administration in vivo plasma concentrations of the parent compound were low, about 3 μg/ml (7 μM) whereas the de-esterified acid form (compound 8) was present at high peak concentrations of around 50 μg/ml (128 μM). When compound 8 was administered orally to mice at the same dose even higher peak concentrations of 90 μg/ml (230 μM) were achieved.

[2] = test system: H1975 (KRAS wildtype cell line); assay: Proliferation Assay H1975; assay type: cell-based; conditions: Homo sapiens, NCI-H1975, n = 1
Summary of the method: (§1)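 Cells plated 2000 per well, allowed 24 h to attach, then exposed 72 h to agents (0-100 μM for isogenic lines; 0.01 to 50 μM for the RPMI 1640/10% FBS-cultured 30-line NSCLC panel). MTS read at 490 nm after 2 h, normalized to no-cell and no-drug controls; IC50 from curve fitting.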

[3] = test system: A549 (KRAS mutant cell line); assay: Proliferation Assay A549; assay type: cell-based; conditions: Homo sapiens, N = 2 experiments
Summary of the method: as §1

[4] = test system: mut-KRAS NSCLC cell lines; assay: Screening against NSCLC cell line panel, mut-KRAS lines; assay type: cell-based
Experimental: The isogenic KRAS lines harboring G12D, G12C, and G12V were obtained from Horizon Discovery labs on a one year lease. These cells were cultured in McCoys media with 10% FBS to 80% confluency. Cells were then released from flasks via trypsinization and plated into 96-well plates at an initial density range of 2000 cells per well. Cells were allowed 24 hours to attach, and then the agents were added to the culture media at a range of concentrations from 0-100 μM. Cells were incubated for 72 hours with the drugs, and then viability was assessed using an MTS viability assay. Cells were exposed to MTS reagent (Promega) dissolved in PBS (Hyclone) at a concentration of 200 μL reagent/mL media for 2 hours. Absorbance was then read at 490 nm, and viability was expressed as a percentage normalized between the negative control (no cells plated) and the condition of cells with no drug added (100% viability) normalized as the upper limit of viability.
Our panel of 30 cell lines and an extensive characterization were obtained from Dr. John Minna (UTSW). All cell lines were cultured in RPMI 1640 with 10% FBS. Cells were treated with concentrations of agents at concentrations 0.01 to 50 μM and evaluated as described above. IC50's were determined using Excelfit.

## CCOC(=O)Cc1nn(Cc2nc(-c3ccc(C)cc3)cs2)c(=O)c2ccccc12 [Compound 7]
rHuman carboxyesterase 1
  Half life: 0.317 h
PH-domain of AKT
  SPR binding to PH-domain of AKT: No measurable binding
[1]; compound #7 orally 200 mg/kg, 200 mg/kg
  plasma concentration of the parent compound: about 3 μg/ml and ~7 μM
[1]
  elimination half life: 13 h
[1]; listed as #7
  elimination half life: 6 h
[1]; orally 200 mg/kg, FIG. 4B
  metabolism in vivo to the acid metabolite: rapidly de-esterified
[2]
  IC50: 45 µM
[3]
  IC50: 15 µM
[4]; FIG. 3 and FIG. 5
  inhibition of mut-KRAS cell growth (in words): low micromolar inhibition; also recorded: as effectively as siRNA to KRAS or CNKSR1
[4]; Table 5, read-out: Mean IC50 mut-KRAS
  IC50: 23.9 ± 2.5 µM
[4]; Table 6, mean of 3 mut-KRAS lines, read-out: NSCL cell line cytotoxicity IC50 mut-KRAS
  IC50: 49 µM
